From patent US20230312528A1, “2-OXO-IMIDAZOLIDINE-4-CARBOXAMIDES AS NAV1.8 INHIBITORS” (Merck Sharp & Dohme LLC, priority 2020, published 2023) come the findings set out here.

Sequence of human NaV1.8 (Q9Y5Y9 whole entry): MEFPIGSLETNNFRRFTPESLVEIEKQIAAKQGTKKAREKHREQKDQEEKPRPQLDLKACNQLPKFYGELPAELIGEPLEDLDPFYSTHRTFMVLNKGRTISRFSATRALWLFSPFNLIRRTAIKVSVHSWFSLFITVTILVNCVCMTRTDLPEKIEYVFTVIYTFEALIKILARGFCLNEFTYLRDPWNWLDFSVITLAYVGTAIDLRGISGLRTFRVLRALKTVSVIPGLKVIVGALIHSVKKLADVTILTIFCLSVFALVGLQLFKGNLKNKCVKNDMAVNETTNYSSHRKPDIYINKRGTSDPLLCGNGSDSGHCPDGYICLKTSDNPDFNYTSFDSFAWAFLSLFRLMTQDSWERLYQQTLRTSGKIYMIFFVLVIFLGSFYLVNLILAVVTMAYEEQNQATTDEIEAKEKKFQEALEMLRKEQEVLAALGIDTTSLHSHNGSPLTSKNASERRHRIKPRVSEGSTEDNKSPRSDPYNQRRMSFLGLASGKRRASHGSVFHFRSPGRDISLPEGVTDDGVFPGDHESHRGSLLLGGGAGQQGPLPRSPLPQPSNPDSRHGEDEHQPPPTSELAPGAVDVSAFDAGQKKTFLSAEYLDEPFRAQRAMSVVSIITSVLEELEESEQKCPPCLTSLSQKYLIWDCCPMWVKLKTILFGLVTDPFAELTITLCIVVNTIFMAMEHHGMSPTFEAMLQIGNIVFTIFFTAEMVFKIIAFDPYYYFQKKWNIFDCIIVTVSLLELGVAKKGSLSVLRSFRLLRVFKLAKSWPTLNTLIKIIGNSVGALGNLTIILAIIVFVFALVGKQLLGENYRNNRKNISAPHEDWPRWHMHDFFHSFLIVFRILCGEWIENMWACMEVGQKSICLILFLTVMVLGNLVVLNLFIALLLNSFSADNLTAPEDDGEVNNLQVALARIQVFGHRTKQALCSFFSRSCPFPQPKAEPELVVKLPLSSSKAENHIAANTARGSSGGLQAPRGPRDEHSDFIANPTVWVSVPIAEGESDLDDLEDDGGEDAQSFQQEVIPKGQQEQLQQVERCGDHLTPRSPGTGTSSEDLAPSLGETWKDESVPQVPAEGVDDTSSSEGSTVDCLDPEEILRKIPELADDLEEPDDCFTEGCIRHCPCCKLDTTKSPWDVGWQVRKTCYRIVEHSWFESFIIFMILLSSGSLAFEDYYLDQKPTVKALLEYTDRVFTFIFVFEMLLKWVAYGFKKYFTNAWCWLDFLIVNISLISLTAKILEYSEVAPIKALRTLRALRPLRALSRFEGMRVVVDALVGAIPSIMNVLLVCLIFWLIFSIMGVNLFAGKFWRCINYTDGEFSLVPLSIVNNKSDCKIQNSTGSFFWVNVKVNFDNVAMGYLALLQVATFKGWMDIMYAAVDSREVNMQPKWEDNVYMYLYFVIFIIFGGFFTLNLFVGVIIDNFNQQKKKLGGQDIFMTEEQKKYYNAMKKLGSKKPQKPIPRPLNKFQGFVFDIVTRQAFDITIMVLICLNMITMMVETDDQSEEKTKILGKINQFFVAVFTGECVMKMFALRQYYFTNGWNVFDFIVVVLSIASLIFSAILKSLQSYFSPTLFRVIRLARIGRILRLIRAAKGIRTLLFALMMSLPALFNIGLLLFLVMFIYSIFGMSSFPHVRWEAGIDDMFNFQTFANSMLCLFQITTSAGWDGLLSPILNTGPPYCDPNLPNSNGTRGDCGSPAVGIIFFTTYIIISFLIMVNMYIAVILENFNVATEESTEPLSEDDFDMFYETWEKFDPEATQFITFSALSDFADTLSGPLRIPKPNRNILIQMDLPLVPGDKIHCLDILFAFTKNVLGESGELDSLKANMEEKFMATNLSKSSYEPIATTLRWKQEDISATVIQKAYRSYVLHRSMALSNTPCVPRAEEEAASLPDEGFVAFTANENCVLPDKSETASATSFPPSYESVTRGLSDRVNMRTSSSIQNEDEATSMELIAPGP

This experiment addresses human NaV1.8 (Homo sapiens (Human), UniProt Q9Y5Y9). As to the kind of experiment: Nav1.8 Qube automated patch-clamp assay. It is filed as cell-based. The note with it: human NaV1.8 stably expressed in HEK 293 cells; automated 384-well patch-clamp; resting or inactivated state not specified. The protocol:
Compounds were tested on human NaV1.8 and NaV1.5 channels stably expressed in human embryo kidney (HEK) 293 cells. Sodium current measurements on Qube® were conducted as follows: automated 384-well patch-clamp assays on the Qube® platform (Sophion Biosciences) were used to measure the inhibition of sodium flow through human NaV1.8 and NaV1.5 channels. Whole-cell voltage-clamp recordings were performed in QChips® (Sophion Biosciences) at room temperature. NaV1.8 current measurements on Qube® were obtained as follows: NaV1.8 currents were elicited with a 10 second 1 Hertz (Hz) pulse train from a holding potential of −90 millivolts (mV), delivered to the cells once per minute in the control condition (DMSO only) and after compound addition. The 1 hertz pulse train stimulation consisted of ten test pulses to 10 millivolt (mV) for 20 milliseconds (ms), each of which was followed by a 980 millisecond repolarization to −67 millivolts. At the end of the 10 second pulse train stimulation, a 5 second hyperpolarization step to −100 millivolt (mV) was used to recover NaV1.8 from fast inactivation. The peak currents elicited by the 1st and 10th test pulses were used to determine IC50 values for resting inhibition and inactivated state inhibition. NaV1.5 current measurements on Qube® were obtained as follows: NaV1.5 currents were elicited with a 20 second 3 Hertz pulse train in the control condition (DMSO only) and after compound addition. The pulse train consisted of sixty 20 millisecond test pulses to 0 millivolt from a holding potential of −80 millivolt (mV). The average peak currents elicited by the last 3 test pulses were used to determine IC50 values for NaV1.5 inhibition.
The following buffers were used for the Qube® recordings: External buffer for NaV1.8 Qube® recording: 150 NaCl, 2 CaCl2, 5 KCl, 1 Mg Cl2, 10 HEPES, 12 Dextrose; External buffer for Qube® NaV1.5 recording: 120 N-Methyl-D-Glucamine, 40 NaCl, 1 KCl, 2.7 CaCl2, 5 HEPES, 0.5 MgCl2; and Internal buffer for Qube® recording: 120 CsF, 30 CsCl, 10 EGTA, 5 HEPES, 5 NaF, 2 MgCl2.
For all Qube® experiments offline analysis was used to determine percent inhibition as a function of drug concentration. IC50 values were determined by fitting to the Hill equation.
On the technique in general: Patch clamp records ionic current or voltage across a cell membrane.
For the molecule `O=C1NC[C@@H](C(=O)NC(c2ccc(F)c(Cl)c2F)[C@@H]2CC[C@@H](C(F)(F)F)CO2)N1` (single isomer, unassigned) [Example 8B, (S)—N—((R or S)-(3-chloro-2,4-difluorophenyl)((trans)-5-(trifluoromethyl)tetrahydro-2H-pyran-2-yl)methyl)-2-oxoimidazolidine-4-carboxamide], it took 8.4 nM to reach half-maximal inhibition (IC50). As for `O=C1NC[C@@H](C(=O)NC(c2cnc(C(F)(F)F)c(F)c2)c2ccc(F)c(Cl)c2F)N1` (single isomer, unassigned) [Example 44, (S)-N-((R or S)-(3-chloro-2,4-difluoro-phenyl)(5-fluoro-6-(trifluoromethyl)pyridin-3-yl)methyl)-2-oxoimidazolidine-4-carboxamide], the figure is 3.1 nM; as for `O=C1NC[C@@H](C(=O)NC(c2ccc(C(F)F)nc2)c2ccc(F)c(Cl)c2F)N1` (single isomer, unassigned) [Example 43, (S)-N-((R or S)-(3-chloro-2,4-difluorophenyl)(6-(difluoromethyl)pyridin-3-yl)methyl)-2-oxoimidazolidine-4-carboxamide], 13 nM; as for `O=C1NC[C@@H](C(=O)NC(c2ccc(F)c(Cl)c2F)C2CCN(C3(C(F)(F)F)CC3)CC2)N1` (single isomer, unassigned) [Example 5A, (S)—N—((R or S)-(3-chloro-2,4-difluorophenyl)(1-(1-(trifluoromethyl)-cyclopropyl)piperidin-4-yl)methyl)-2-oxoimidazolidine-4-carboxamide], 1.6 nM. With `O=C1NC[C@@H](C(=O)NC(COC2CCC(F)(F)CC2)c2ccc(F)c(Cl)c2)N1` (single isomer, unassigned) [Example 29A, (4S)-N-{1-((R or S)-3-chloro-4-fluorophenyl)-2-[(4,4-difluoro-cyclohexyl)oxy]ethyl}-2-oxoimidazolidine-4-carboxamide] the figure was 110 nM. As for `O=C1NC[C@@H](C(=O)NC(c2ccc(OC(F)(F)F)c(Cl)c2)c2cnn(C(F)(F)F)c2)N1` (single isomer, unassigned) [Example 41A, (S)—N—((R or S)-(3-chloro-4-(trifluoromethoxy)phenyl)(1-(trifluoromethyl)-1H-pyrazol-4-yl)-l3-methyl)-2-oxoimidazolidine-4-carboxamide], the figure is 1.7 nM.

Regarding `Cn1nc(C(NC(=O)[C@@H]2CNC(=O)N2)c2ccc(Cl)cc2)cc1C(F)(F)F` (single isomer, unassigned) [Example 75A], the IC50 (as a rule, the point on the concentration scale where inhibition reaches its midpoint) was determined as 58 nM. This IC50 lies about 34-fold higher than the previous one. `O=C1NC[C@@H](C(=O)NC(CCc2ccc(Cl)cc2)c2ccc(F)c(Cl)c2F)N1` (single isomer, unassigned) [Example 52B, (4S)—N—((R or S)-1-(3-chloro-2,4-difluorophenyl)-3-(4-chlorophenyl)propyl)-2-oxoimidazolidine-4-carboxamide] displayed an IC50 of 4.3 nM. Take `O=C1NC[C@@H](C(=O)NC(CC2CCCOC2)c2ccc(F)c(Cl)c2F)N1` (single isomer, unassigned) [Example 26D, (S)-N-((R or S)-1-(3-chloro-2,4-difluorophenyl)-2-((R or S)-tetrahydro-2H-pyran-3-yl)ethyl)-2-oxoimidazolidine-4-carboxamide]: 7830 nM corresponded to half-maximal inhibition (IC50). Molecule `O=C1NC[C@@H](C(=O)NC(COc2ccc(C(F)(F)F)nc2)c2ccc(F)c(Cl)c2)N1` (mixture of isomers) [Example 53, (4S)-N-(1-(3-chloro-4-fluorophenyl)-2-((6-(trifluoromethyl)pyridin-3-yl)oxy)ethyl)-2-oxoimidazolidine-4-carboxamide] had an IC50 of 219 nM. This IC50 lies about 36-fold lower than the previous one. As for `O=C1NC[C@@H](C(=O)NC(c2ccc(OC(F)(F)F)nc2)c2ccc(F)c(Cl)c2F)N1` (single isomer, unassigned) [Example 24A, (4S)-N-{(R or S)-(3-chloro-2,4-difluorophenyl)[6-(trifluoromethoxy)pyridin-3-yl]methyl}-2-oxoimidazolidine-4-carboxamide], the figure is 3.1 nM; as for `O=C1NC[C@@H](C(=O)NC(c2ccc(F)c(Cl)c2)c2ccc(Cl)c(C(F)(F)F)n2)N1` (single isomer, unassigned) [Example 62B, (S)-N-((R or S)-(3-chloro-4-fluorophenyl)(5-chloro-6-(trifluoromethyl)pyridin-2-yl)methyl)-2-oxoimidazolidine-4-carboxamide], 0.4 nM. As for `O=C1NC[C@@H](C(=O)NC(c2ccc(OCC(F)(F)F)nc2)c2ccc(F)c(Cl)c2F)N1` (single isomer, unassigned) [Example 33A, (S)—N—((R or S)-(3-chloro-2,4-difluorophenyl)(6-(2,2,2-trifluoroethoxy)pyridin-3-yl)methyl)-2-oxoimidazolidine-4-carboxamide], the figure is 1.3 nM. As for `O=C1NC[C@@H](C(=O)NC(c2ccc(F)c(Cl)c2F)C23CC(C(F)(F)F)(C2)C3)N1` (single isomer, unassigned) [Example 27B, (4S)—N—((R or S)-(3-chloro-2,4-difluorophenyl)(3-(trifluoromethyl)bicyclo[1.1.1]pentan-1-yl)methyl)-2-oxoimidazolidine-4-carboxamide], the figure is 244 nM; as for `O=C1NC[C@@H](C(=O)NC(c2ccc(F)c(Cl)c2F)[C@H]2C[C@H](C(F)(F)F)C2)N1` (single isomer, unassigned) [Example 34A, (S)—N—((R or S)-(3-chloro-2,4-difluorophenyl)(trans-3-(trifluoromethyl)cyclobutyl)methyl)-2-oxoimidazolidine-4-carboxamide], 3.8 nM. In turn, `O=C1NC[C@@H](C(=O)NC(c2ccc(F)c(Cl)c2)c2ccc(F)c(OCC(F)(F)F)n2)N1` (single isomer, unassigned) [Example 11B, (4S)-N-{((R or S)-3-chloro-4-fluoro-phenyl)[5-fluoro-6-(2,2,2-trifluoro-ethoxy)pyridin-2-yl]methyl}-2-oxoimidazolidine-4-carboxamide] registered an IC50 of 3.9 nM.

`O=C1NC[C@@H](C(=O)NC(c2cnc(C(F)(F)F)c(Cl)c2)c2ccc(Cl)c(C(F)(F)F)n2)N1` (single isomer, unassigned) [Example 56A, (S)-N-((R or S)-(5-chloro-6-(trifluoromethyl)pyridin-2-yl)(5-chloro-6-(trifluoromethyl)pyridin-3-yl)methyl)-2-oxoimidazolidine-4-carboxamide] gave a half-inhibitory concentration (IC50) of 2.5 nM. With `O=C1NC[C@@H](C(=O)NC(c2ccc(F)c(Cl)c2)C2Cc3c(Cl)cccc32)N1` (single isomer, unassigned) [Example 70B, (S)-N-((R or S)-(3-chloro-4-fluoro-phenyl)((R or S)-2-chlorobicyclo[4.2.0]-octa-1(6),2,4-trien-7-yl)methyl)-2-oxoimidazolidine-4-carboxamide] the figure was 9 nM.

`O=C1NC[C@@H](C(=O)NC(c2ccc(F)c(Cl)c2)[C@H]2CC[C@H](C(F)(F)F)CC2)N1` (single isomer, unassigned) [Example 32B, (4S)—N—((R or S)-(3-chloro-4-fluorophenyl)(trans-4-(trifluoro-methyl)cyclohexyl)methyl)-2-oxoimidazolidine-4-carboxamide] had an IC50 of 67 nM. With `O=C1NC[C@@H](C(=O)NC(c2ccc(F)c(C(F)F)n2)c2ccc(F)c(Cl)c2F)N1` (single isomer, unassigned) [Example 63B, (S)-N-((R or S)-(3-chloro-2,4-difluorophenyl)(6-(difluoromethyl)-5-fluoropyridin-2-yl)methyl)-2-oxoimidazolidine-4-carboxamide] the figure was 16 nM.

The molecule `O=C1NC[C@@H](C(=O)NC(c2ccc(OC(F)(F)F)cc2)c2cccc(Cl)c2)N1` (single isomer, unassigned) [Example 9B, (4S)—N—((R or S)-(3-chlorophenyl)(4-(trifluoromethoxy)-phenyl)methyl)-2-oxoimidazolidine-4-carboxamide] registered a 50% inhibitory concentration (IC50) of 2 nM. With `O=C1NC[C@@H](C(=O)NC(CC2CCC(C(F)(F)F)CC2)c2ccc(F)c(Cl)c2F)N1` (single isomer, unassigned) [Example 23B, (S)—N—((R or S)-1-(3-chloro-2,4-difluorophenyl)-2-((cis or trans)-4-(trifluoro-methyl)cyclohexyl)ethyl)-2-oxoimidazolidine-4-carboxamide] the figure was 4.9 nM; with `O=C1NC[C@@H](C(=O)NC(c2ccc(F)c(Cl)c2)c2ccc(F)c(Cl)c2)N1` [Example 61, (S)-N-(bis(3-chloro-4-fluorophenyl)methyl)-2-oxoimidazolidine-4-carboxamide], 0.7 nM.
